Assay results: ChEMBL document CHEMBL1127272, “2-Aryl-1-azabicyclo[2.2.2]octanes as novel nonpeptide substance P antagonists” (Bioorg Med Chem Lett, 1994)

target: T1, Substance-P receptor (Homo sapiens, UniProt P25103); assay: Inhibitory concentration for displacement of [3H]-Substance P (SP) in human IM-9 cells; assay type: cell-based; details: not given
T1 sequence (P25103 whole entry): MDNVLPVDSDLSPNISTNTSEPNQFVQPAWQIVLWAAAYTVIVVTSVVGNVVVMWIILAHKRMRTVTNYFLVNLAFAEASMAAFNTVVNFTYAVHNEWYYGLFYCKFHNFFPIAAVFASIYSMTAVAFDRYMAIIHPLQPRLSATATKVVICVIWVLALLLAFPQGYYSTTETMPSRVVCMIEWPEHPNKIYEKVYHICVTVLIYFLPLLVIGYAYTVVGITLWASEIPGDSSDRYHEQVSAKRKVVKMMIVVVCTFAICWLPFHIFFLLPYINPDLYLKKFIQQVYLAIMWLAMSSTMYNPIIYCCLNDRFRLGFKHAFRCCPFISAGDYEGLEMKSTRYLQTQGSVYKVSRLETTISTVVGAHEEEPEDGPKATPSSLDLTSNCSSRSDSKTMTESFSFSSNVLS

SMILES	IC50 [µM]
COc1ccc(CN[C@@H]2C3CCN(CC3)[C@@H]2c2cccc(Cl)c2)c(OC)c1 (single isomer, unassigned)	0.039
COc1ccccc1CN[C@@H]1C2CCN(CC2)[C@H]1c1ccccc1	0.7
COc1ccc(CN[C@H]2C3CCN(CC3)[C@@H]2c2cccc(Cl)c2)c(OC)c1	0.35
COc1ccccc1CN[C@H]1C2CCN(CC2)[C@H]1c1cccc(Cl)c1	0.02
COc1cccc([C@H]2[C@@H](NCc3ccccc3OC)C3CCN2CC3)c1	0.16
COc1ccccc1CN[C@@H]1C2CCN(CC2)[C@H]1c1cccc(Cl)c1	0.24
COc1ccccc1CN[C@H]1C2CCN(CC2)[C@H]1c1ccccc1	0.14
Clc1cccc([C@H]2[C@@H](NCc3ccccc3Cl)C3CCN2CC3)c1	0.23

target: T1, Substance-P receptor; assay: Tested for Tachykinin receptor 1 antagonistic activity in dog isolated carotid artery(DCA) system at a concentration of 5*10e-6 M; assay type: functional; details: Canis lupus familiaris; target entry is the homologue from another species

SMILES	pKB
COc1ccc(CN[C@H]2C3CCN(CC3)[C@H]2c2cccc(Cl)c2)c(OC)c1	7
